Values after ≈ are worked out from the molar mass of the structure shown. Like-named read-outs stand apart in the source and are kept apart here.
Key:
Candida albicans = settings: cited from earlier work
Gardnerella vaginalis [1] = experiment: MIC against Gardnerella vaginalis (ATCC 14018 and 11 clinical isolates), standard two-fold dilution; type: cell-based; settings: for NUMBER OF STRAINS WITH MIC OF 8: MIC 8 mcg/ml; for NUMBER OF STRAINS WITH MIC OF 16: MIC 16 mcg/ml; for NUMBER OF STRAINS WITH MIC OF 32: MIC 32 mcg/ml; for NUMBER OF STRAINS WITH MIC OF 64: MIC 64 mcg/ml; for NUMBER OF STRAINS WITH MIC OF 4: MIC 4 mcg/ml
Procedure: The strains were grown on Casman medium (Difco) plus 5% (v/v) whole rabbit blood and 0.15 (v/v) lysed rabbit blood. Inoculum size: approximately 10^4 colony forming units per spot. Incubation in an anaerobic hood: 48 hours at 37° C.

Gardnerella vaginalis [2] = settings: cited from earlier work
yeasts = settings: cited from earlier work
Trichomonas vaginalis = settings: cited from earlier work
Gram-negative bacteria = settings: in vitro; cited from earlier work
[3] = test system: fungi, including filamentous fungi (e.g., Trichophyton mentagrophytes) and yeasts e.g., Candida albicans; settings: in vitro; cited from earlier work
Solubility = type: physicochemical
[4] = test system: Candida albicans strain SKF 2270; experiment: Topical treatment of yeast vaginal infection in ovariectomized rats; type: in vivo, rat; settings: topical intravaginal; for Mean log10 CFU/smear sample ± SD: twice daily for three days, untreated 3.43 ± 0.55, vehicle 3.74 ± 0.60
Procedure: The effectiveness of purpuromycin in the topical treatment of yeast vaginal infection was also tested in ovariectomized rats (Charles River) treated subcutaneously with 4 mg of estradiol benzoate approximately two weeks after ovariectomy. Five days later they were inoculated intravaginally with approximately 5×10^6 colony forming units (CFU) of Candida albicans strain SKF 2270 in 25 microliters of Nutrient Broth (no.2, Oxoid) containing 15% (vol/vol) of glycerol. Topical intravaginal therapy was twice daily for three days, starting one day after infection, with 100 microliters of a purpuromycin suspension in a mixture of 10:90 DMSO-polyethylene glycol 400, corresponding to 2 or 5 mg/rat/treatment. The day after the last treatment, vaginal smear samples (calibrated 10 microliter loops) were diluted and plated for viable organism counts on Sabouraud agar (Difco). Each group contained 10 animals.

Gram-positive bacteria = settings: in vitro; cited from earlier work
[5] = test system: Bacteroides fragilis ATCC 23745; experiment: MIC against Bacteroides fragilis, two-fold dilution method; type: cell-based; settings: ATCC23745, anaerobic, 48 hours at 37° C., Wilkins-Chalgren broth, approximately 10^4 CFU/ml
Procedure: A further experiment representative of the activity of purpuromycin against other anaerobic bacteria which are usually associated with infectious vaginitis utilized Bacteroides fragilis ATCC […] as the test microorganism. The experiment was carried out by the two-fold dilution method in microliter plates using Wilkins-Chalgren broth (Difco).
Inoculum size: approximately 10^4 colony forming units/ml. Incubation in an anerobic hood: 48 hours at 37° C. Purpuromycin was dissolved in DMSO and was added to the culture medium as above.

[6] = 12 strains tested, anaerobic, 48 hours at 37° C.
[7] = MIC >128 mcg/ml, 12 strains tested, anaerobic, 48 hours at 37° C.

C[C@@H]1[C@H](O)[C@@H](C)/C=C/C=C/C=C/C=C/C=C/C=C/C=C/[C@H](O[C@@H]2O[C@H](C)[C@@H](O)[C@H](N)[C@@H]2O)C[C@@H]2O[C@](O)(C[C@@H](O)C[C@@H](O)[C@H](O)CC[C@@H](O)C[C@@H](O)CC(=O)O[C@H]1C)C[C@H](O)[C@H]2C(=O)O [Amphotericin B]
effectiveness against Candida albicans infections (Candida albicans): effective

Clc1ccccc1C(c1ccccc1)(c1ccccc1)n1ccnc1 [Clotrimazole]
effectiveness against Candida albicans infections (Candida albicans): effective | NUMBER OF STRAINS WITH MIC OF 8 (Gardnerella vaginalis [1]; [6]): 2 strains | NUMBER OF STRAINS WITH MIC OF 16 (Gardnerella vaginalis [1]; [6]): 1 strains | NUMBER OF STRAINS WITH MIC OF 32 (Gardnerella vaginalis [1]; [6]): 2 strains | NUMBER OF STRAINS WITH MIC OF 64 (Gardnerella vaginalis [1]; [6]): 5 strains | NUMBER OF STRAINS WITH MIC OF >128 (Gardnerella vaginalis [1]; [7]): 2 strains

CC(=O)N1CCN(c2ccc(OCC3COC(Cn4ccnc4)(c4ccc(Cl)cc4Cl)O3)cc2)CC1 (centres unmarked) [Ketoconazole]
effectiveness against Candida albicans infections (Candida albicans): effective

Cc1ncc([N+](=O)[O-])n1CCO [Metronidazole]
activity against Gardnerella vaginalis (Gardnerella vaginalis [2]): active | activity against yeasts (yeasts): not active | NUMBER OF STRAINS WITH MIC OF 4 (Gardnerella vaginalis [1]; [6]): 1 strains | NUMBER OF STRAINS WITH MIC OF 8 (Gardnerella vaginalis [1]; [6]): 3 strains | NUMBER OF STRAINS WITH MIC OF 16 (Gardnerella vaginalis [1]; [6]): 4 strains | NUMBER OF STRAINS WITH MIC OF 64 (Gardnerella vaginalis [1]; [6]): 1 strains | NUMBER OF STRAINS WITH MIC OF 128 (Gardnerella vaginalis [1]; MIC 128 mcg/ml, 12 strains tested, anaerobic, 48 hours at 37° C.): 3 strains | activity against Trichomonas vaginalis (Trichomonas vaginalis): active

Clc1ccc(COC(Cn2ccnc2)c2ccc(Cl)cc2Cl)c(Cl)c1 (centres unmarked) [Miconazole]
effectiveness against Candida albicans infections (Candida albicans): effective | MIC (Gardnerella vaginalis [1]; Gardnerella vaginalis, strains resistant to the agent, read-out: MIC (on resistant strains)): 128 µg/mL (≈ 308 µM) | NUMBER OF STRAINS WITH MIC OF 4 (Gardnerella vaginalis [1]; [6]): 1 strains | NUMBER OF STRAINS WITH MIC OF 8 (Gardnerella vaginalis [1]; [6]): 7 strains | NUMBER OF STRAINS WITH MIC OF 32 (Gardnerella vaginalis [1]; [6]): 2 strains | NUMBER OF STRAINS WITH MIC OF >128 (Gardnerella vaginalis [1]; [7]): 2 strains

C[C@@H]1[C@H](O)[C@@H](C)/C=C/C=C/CC/C=C/C=C/C=C/C=C/C(O[C@H]2O[C@H](C)[C@@H](O)[C@H](N)[C@@H]2O)CC2O[C@](O)(CC(O)C(O)CCC(O)CC(O)CC(O)CC(=O)O[C@H]1C)CC(O)C2C(=O)O (some centres unmarked) [Nystatin]
effectiveness against Candida albicans infections (Candida albicans): effective | NUMBER OF STRAINS WITH MIC OF >128 (Gardnerella vaginalis [1]): 12 strains

COC(=O)c1cc2cc3c(c(O)c2c(=O)o1)OC1(Cc2c(O)c4c(c(O)c2O1)C(=O)C(OC)=CC4=O)CC3O (centres unmarked) [Purpuromycin]
activity against Gram-negative bacteria (Gram-negative bacteria): active | activity against fungi [3]: active | solubility in lower alkanols (Solubility; lower alkanols): practically unsoluble | solubility in water (Solubility; water): practically unsoluble | Mean log10 CFU/smear sample ± SD ([4]; 2 mg/rat/treatment): 2.00 ± 0.75 log10 CFU/smear sample | Mean log10 CFU/smear sample ± SD ([4]; 5 mg/rat/treatment, *P <0.01 vs group 1 controls): 2.28 ± 0.78 log10 CFU/smear sample | numbers of viable yeast cells/sample ([4]; 2 or 5 mg/rat/treatment): significantly reduced | MIC (Gardnerella vaginalis [1]; 48 h, all 12 Gardnerella vaginalis strains, read-out: concentration that inhibits the growth of all tested strains): 8 µg/mL (≈ 14.9 µM) | NUMBER OF STRAINS WITH MIC OF 8 (Gardnerella vaginalis [1]; [6]): 12 strains | activity on strains resistant to metronidazole, nystatin and miconozole (Gardnerella vaginalis [1]; resistant strains): active | activity against Gram-positive bacteria (Gram-positive bacteria): active | MIC [5]: 0.25 µg/mL (≈ 0.464 µM)

CC1(C)S[C@@H]2[C@H](NC(=O)[C@H](N)c3ccccc3)C(=O)N2[C@H]1C(=O)O [ampicillin]
activity against Gardnerella vaginalis (Gardnerella vaginalis [2]): active

CC1=C(C(=O)O)N2C(=O)[C@@H](NC(=O)[C@H](N)c3ccccc3)[C@H]2SC1 [cefalexin]
activity against Gardnerella vaginalis (Gardnerella vaginalis [2]): active

CO[C@@]1(NC(=O)Cc2cccs2)C(=O)N2C(C(=O)O)=C(COC(N)=O)CS[C@@H]21 [cefoxitin]
activity against Gardnerella vaginalis (Gardnerella vaginalis [2]): active

O=C(Cc1cccs1)N[C@@H]1C(=O)N2C(C(=O)[O-])=C(C[n+]3ccccc3)CS[C@H]12 [cephaloridine]
activity against Gardnerella vaginalis (Gardnerella vaginalis [2]): active

O=C(N[C@H](CO)[C@H](O)c1ccc([N+](=O)[O-])cc1)C(Cl)Cl [chloramphenicol]
activity against Gardnerella vaginalis (Gardnerella vaginalis [2]): active

CCC[C@@H]1C[C@@H](C(=O)N[C@@H]([C@H]2O[C@H](SC)[C@H](O)[C@@H](O)[C@H]2O)[C@H](C)Cl)N(C)C1 [clindamycin]
activity against Gardnerella vaginalis (Gardnerella vaginalis [2]): active

Clc1ccc(COC(Cn2ccnc2)c2ccc(Cl)cc2Cl)cc1 (centres unmarked) [econozole]
effectiveness against Candida albicans infections (Candida albicans): effective

CC[C@H]1OC(=O)[C@H](C)[C@@H](O[C@H]2C[C@@](C)(OC)[C@@H](O)[C@H](C)O2)[C@H](C)[C@@H](O[C@@H]2O[C@H](C)C[C@H](N(C)C)[C@H]2O)[C@](C)(O)C[C@@H](C)C(=O)[C@H](C)[C@@H](O)[C@]1(C)O [erythromycin]
activity against Gardnerella vaginalis (Gardnerella vaginalis [2]): active

OC(Cn1cncn1)(Cn1cncn1)c1ccc(F)cc1F [fluconazole]
effectiveness against Candida albicans infections (Candida albicans): effective

CN(C)c1ccc(C(=C2C=CC(=[N+](C)C)C=C2)c2ccc(N(C)C)cc2)cc1 [gentian violet]
effectiveness against Candida albicans infections (Candida albicans): effective

CC1(C)S[C@@H]2[C@H](NC(=O)Cc3ccccc3)C(=O)N2[C@H]1C(=O)O [penicillin G]
activity against Gardnerella vaginalis (Gardnerella vaginalis [2]): active

CN[C@@H]1[C@H](O)[C@H](NC)[C@H]2O[C@@]3(O)C(=O)C[C@@H](C)O[C@H]3O[C@@H]2[C@H]1O [spectinomycin]
activity against Gardnerella vaginalis (Gardnerella vaginalis [2]): active

Cc1cc(NS(=O)(=O)c2ccc(N)cc2)no1 [sulfamethoxazole]
activity against Gardnerella vaginalis (Gardnerella vaginalis [2]): active

CN(C)C1C(=O)C(C(N)=O)=C(O)C2(O)C(=O)C3=C(O)c4c(O)cccc4C(C)(O)C3CC12 (centres unmarked) [tetracycline]
activity against Gardnerella vaginalis (Gardnerella vaginalis [2]): active

CCS(=O)(=O)CCn1c([N+](=O)[O-])cnc1C [tinidazole]
activity against Trichomonas vaginalis (Trichomonas vaginalis): active

candicidin
effectiveness against Candida albicans infections (Candida albicans): effective

gentamicin
activity against Gardnerella vaginalis (Gardnerella vaginalis [2]): active

From patent US5141953A, “Purpuromycin for the treatment of vaginal infections and pharmaceutical dosage forms for said use” (Gruppo Lepetit S.p.A., priority 1989, dated 1992)
